Activity calls are given as the source filed them. The rule behind the calls is not given here.
How the values were obtained:
[1] = Subacute toxicity in SPF Kunming mouse assessed as body weight at 2000 mg/kg, po administered once a day for 14 days (reference value: 32g); type: organism-based; details: in vivo, 336 h
[2] = Volume of distribution in steady state in female Sprague-Dawley rat at 2 mg/kg, iv measured up to 24 hrs by LC/MS-MS analysis; type: ADME, organism-based; details: in vivo, read-out: Vdss
[3] = Acute toxicity in SPF Kunming mouse assessed as body weight at 1000 mg/kg, po administered as single dose measured at day 14 (reference value: 34.7g); type: organism-based; details: in vivo
[4] = system: A549; experiment: Induction of autophagy in human A549 cells infected with Ad-mCherry-GFP-LC3B assessed as LC3 aggregate formation at 2.5 uM incubated for 48 hrs by fluorescence microscopy; type: functional, cell-based
[5] = Volume of distribution in Sprague-Dawley rat at 2 mg/kg, iv measured up to 24 hrs by LC/MS-MS analysis; type: ADME, organism-based; details: in vivo
[6] = Toxicity in athymic nude mouse xenografted with human A549 cells assessed as effect on kidney morphological changes at 25 to 50 mg/kg, ip administered once daily for 21 days by H and E staining based assay; type: organism-based; details: in vivo, 504 h
[7] = system: A549; experiment: Induction of autophagy in human A549 cells assessed as change in […] expression at 1 to 5 uM incubated for 48 hrs by Western blot analysis; type: functional, cell-based
[8] = MRT in male Sprague-Dawley rat at 2 mg/kg, iv measured up to 24 hrs by LC/MS-MS analysis; type: ADME, organism-based; details: in vivo
[9] = system: HUVEC; experiment: Antiproliferative activity against human HUVEC cells assessed as inhibition of cell growth incubated for 48 hrs by MTT assay; type: cell-based
[10] = system: A549; experiment: Inhibition of eIF4E/eIF4G interaction in human A549 cells incubated for 48 hrs by m7GTP pull down assay; type: cell-based
[11] = MRT in male Sprague-Dawley rat at 10 mg/kg, po measured up to 24 hrs by LC/MS-MS analysis; type: ADME, organism-based; details: in vivo

Question: For `Fc1ccc(/C=N/Nc2nc(-c3ccc(C(F)(F)F)cc3)cs2)cc1F`, which Activity [1] is on record?
Answer: 30.7 g

Question: And the Vd [2]?
Answer: 0.19 L/kg

Question: And the Activity [3]?
Answer: 34.9 g

Question: And the Activity [4]?
Answer: Active

Question: What about the Vd [5] of the same compound?
Answer: 0.67 L/kg

Question: What about the Activity [6] of the same compound?
Answer: Non-Toxic

Question: And the Activity [7]?
Answer: Active

Question: And the MRT [8]?
Answer: 4.42 h

Question: And the IC50 [9]?
Answer: 79.5 µM

Question: And the inhibition [10]?
Answer: Active

Question: And the MRT [11]?
Answer: 1.83 h
